Measurements from patent US7833513B2, “Treatment of Alzheimer's Disease” (Rhode Island Hospital, priority 2004, dated 2010).

What was measured:
[1] = system: brain immunoreactivity (p53, GFAP, phospho-tau, ubiquitin, Aβ, ChAT, AChE); experiment: ic-STZ model: immunohistochemical staining of brain; assay type: in vivo, Long Evans rat
Excerpt: Paraffin-embedded histological sections of pancreas (5 μm thick) and brain (8 μm thick) were stained with hematoxylin and eosin (H&E) and examined for histopathological lesions, i.e., inflammation, necrosis, and islet cell degeneration. […] Paraffin sections of brain were immunostained with monoclonal or polyclonal antibodies to phospho-tau, Aβ, p53, ubiquitin, glial fibrillary acidic protein (GFAP), choline acetyltransferase (ChAT), and acetylcholinesterase (AChE) to characterize the nature of ic-STZ-induced AD-type neurodegeneration. As negative controls for the immunostaining reactions, either the primary antibody was omitted or non-relevant monoclonal antibody to Hepatitis B virus was used in place of the relevant antibody.
(§1) Prior to immunostaining, the deparaffinized, re-hydrated tissue sections were sequentially treated with 0.1 mg/ml saponin in phosphate buffered saline (10 mM sodium phosphate, 0.9% NaCl, pH 7.4; PBS), for 20 minutes at room temperature. Endogenous peroxidase activity was quenched by treating the tissue sections with 3% hydrogen peroxide in methanol for 10 minutes, and non-specific binding sites were blocked by a 30-minute incubation in SuperBlock-TBS (Pierce Chemical Co., Rockford, Ill.) at room temperature. After overnight incubation at 4° C. with antibodies diluted to 0.1-1 μg/ml (according to the manufacturer's recommendations), immunoreactivity was detected using rat tissue-pre-adsorbed biotinylated secondary antibodies, avidin biotin horseradish peroxidase complex (ABC) reagents, and diaminobenzidine as the chromogen (Vector Laboratories, Burlingame, Calif.). de la Monte et al., Lab. Invest. 80:1323 (2000). The sections were counterstained with hematoxylin and preserved with mounting medium and coverglass. All sections were examined under code.

[2] = ic-STZ rat pup model: blood glucose, body and brain weight, pancreas and brain histopathology; assay type: in vivo, Long Evans rat
Procedure: Control rats were identically injected with sterile saline. […] Andican et al., Clin. Exp. Pharmacol. Physiol. 32:663 (2005); Saad et al., Arch. Toxicol. (2005); Srinivasan et al., Pharmacol. Res. 52:313 (2005); Karabatas et al., Pancreas 30:318 (2005); Mabley et al., Pancreas 28:E39 (2004). […] The injections were completed within 3 minutes and the needle was withdrawn slowly from the brain.
At the termination point of the experiment, the rats were weighed and then sacrificed by isofluorane inhalation. Blood was obtained by cardiac puncture to measure glucose concentration using the OneTouch Ultra Blood Glucose Meter (Lifescan, Inc). The pancreases were harvested and immersion fixed in Histofix (Amresco Corp, Solon, Ohio) for paraffin embedding. Fresh brains were weighed and then cut in the coronal plane to obtain a ˜3 mm thick slice that flanked the infundibulum. The 3-mm brain slice was snap frozen between two slabs of dry ice, and stored at −80° C. for later RNA and protein extractions. The residual tissue was immersion fixed (Histofix) and embedded in paraffin for histopathological study and immunohistochemical staining. In approximately 20% of the cases, the brains were weighed, immersion fixed whole, and then sectioned in the coronal plane along standardized landmarks for paraffin embedding and histopathological sectioning.
Paraffin-embedded histological sections of pancreas (5 μm thick) and brain (8 μm thick) were stained with hematoxylin and eosin (H&E) and examined for histopathological lesions, i.e., inflammation, necrosis, and islet cell degeneration. […] As negative controls for the immunostaining reactions, either the primary antibody was omitted or non-relevant monoclonal antibody to Hepatitis B virus was used in place of the relevant antibody.
as §1, with “Endogenous peroxidase activity was quenched by treating the tissue sections with 3% hydrogen peroxide in methanol for 10 minutes, and non-specific binding sites were blocked by a 30-minute incubation in SuperBlock-TBS (Pierce Chemical Co., Rockford, Ill.) at room temperature.” left out

[3] = system: cerebral cortex and hippocampus glucose and glycogen metabolism; settings: adult rats, intracerebroventricular injection; cited from earlier work
[4] = temporal cortex, hippocampus, hypothalamus/thalamus, cerebellar cortex

CN(N=O)C(=O)NC1C(O)OC(CO)C(O)C1O (stereo not drawn) [STZ]
p53 immunoreactivity in brain ([1]; 14- and 21-day post-treatment): only slightly increased relative to control
p53 immunoreactivity in brain ([1]; Day 7 post-treatment): prominently increased
Aβ immunoreactivity ([1]; neurons, vessels, plaque-like deposits): increased
AChE immunoreactivity ([1]; rat, in vivo): increased
ChAT immunoreactivity ([1]; rat, in vivo): decreased
GFAP immunoreactivity ([1]; rat, in vivo): globally increased
phospho-tau immunoreactivity [1, 4]: increased
ubiquitin immunoreactivity [1, 4]: increased
hemorrhage in brain ([2]; 40 mg/kg ic-STZ): multiple small foci of acute subarachnoid hemorrhage
insulin immunoreactivity in pancreatic islets ([2]; 40 mg/kg ic-STZ): prominent insulin immunoreactivity in all pancreatic islets
pancreas histopathology ([2]; 40 mg/kg ic-STZ): no evidence of inflammation, necrosis, or islet cell degeneration
size of cerebral and cerebellar hemispheres ([2]; 40 mg/kg ic-STZ): conspicuously reduced in size
mean blood glucose level vs control ([2]; 40 mg/kg ic-STZ, day 14): significantly lower than control
mean body weight vs control ([2]; 40 mg/kg ic-STZ, day 14): significantly reduced
mean brain weight vs control ([2]; 40 mg/kg ic-STZ, day 14): significantly reduced relative to control
random blood glucose concentration (none of the rats above) ([2]; 40 mg/kg ic-STZ, day 14): ≤ 180 mg/dL
survival of the injections ([2]; 3-day-old pups, bilateral ic injection): All animals survived
chronic reduction in glucose and glycogen metabolism [3]: 10-30%
